Assay results from ChEMBL document CHEMBL3580540, “N1-linked melatonin dimers as bivalent ligands targeting dimeric melatonin receptors” (Medchemcomm, 2014).

Key:
Type in all cases: cell-based
[1] = Displacement of 2-[125I]-iodomelatonin from human MT1 receptor expressed in CHO cells by Gamma counting
[2] = Displacement of 2-[125I]-iodomelatonin from human MT2 receptor expressed in CHO cells by Gamma counting
[3] = test system: HEK-293T; assay: Binding affinity to Rluc-tagged MT1/YFP-tagged MT1 (unknown origin) transfected in HEK293T cells assessed as bioluminescence resonance energy transfer ratio at 10 uM after 10 mins by lumino/fluorometer (reference value: 0.092 +/- 0.007); conditions: Homo sapiens
[4] = test system: HEK-293T; assay: Binding affinity to Rluc-tagged MT1/YFP-tagged MT2 (unknown origin) transfected in HEK293T cells assessed as bioluminescence resonance energy transfer ratio at 10 uM after 10 mins by lumino/fluorometer (reference value: 0.254 +/- 0.035); conditions: Homo sapiens
[5] = test system: HEK-293T; assay: Binding affinity to Rluc-tagged MT2/YFP-tagged MT2 (unknown origin) transfected in HEK293T cells assessed as bioluminescence resonance energy transfer ratio at 10 uM after 10 mins by lumino/fluorometer (reference value: 1.468 +/- 0.560); conditions: Homo sapiens
[6] = test system: HEK-293T; assay: Binding affinity to Rluc-tagged MT2/YFP-tagged MT1 (unknown origin) transfected in HEK293T cells assessed as bioluminescence resonance energy transfer ratio at 10 uM after 10 mins by lumino/fluorometer (reference value: 2.300 +/- 0.777); conditions: Homo sapiens

## COc1ccc2c(c1)c(CCNC(C)=O)cn2CCCCC(=O)NCCCCCCCCNC(=O)CCCCn1cc(CCNC(C)=O)c2cc(OC)ccc21
[1]
  pKi: 6.17
[2]
  pKi: 6.74

## COc1ccc2c(c1)c(CCNC(C)=O)cn2CCCCC(=O)NCCCCCCCCCNC(=O)CCCCn1cc(CCNC(C)=O)c2cc(OC)ccc21
[1]
  pKi: 6.23
[2]
  pKi: 6.79

## COc1ccc2c(c1)c(CCNC(C)=O)cn2CCCCC(=O)NCCCCCCCNC(=O)CCCCn1cc(CCNC(C)=O)c2cc(OC)ccc21
[1]
  pKi: 6.24
[2]
  pKi: 5.93

## COc1ccc2c(c1)c(CCNC(C)=O)cn2CCCCC(=O)NCCCCCCCCCCCNC(=O)CCCCn1cc(CCNC(C)=O)c2cc(OC)ccc21
[1]
  pKi: 6.11
[2]
  pKi: 6.54
[3]
  Ratio: 0.078
[4]
  Ratio: 0.217
[5]
  Ratio: 0.901
[6]
  Ratio: 10.1

## COc1ccc2c(c1)c(CCNC(C)=O)cn2CCCCC(=O)NCCCCCCCCCCNC(=O)CCCCn1cc(CCNC(C)=O)c2cc(OC)ccc21
[1]
  pKi: 6.33
[2]
  pKi: 6.62
[3]
  Ratio: 0.098
[4]
  Ratio: 0.223
[5]
  Ratio: 1.39
[6]
  Ratio: 9.28

## COc1ccc2c(c1)c(CCNC(C)=O)cn2CC(=O)NCCCCCCCCCCCCNC(=O)Cn1cc(CCNC(C)=O)c2cc(OC)ccc21
[1]
  pKi: 6.47
[2]
  pKi: 7.02

## CCCCCCNC(=O)CCCCn1cc(CCNC(C)=O)c2cc(OC)ccc21
[1]
  pKi: 5.79
[2]
  pKi: 6.41

## COc1ccc2c(c1)c(CCNC(C)=O)cn2CC(=O)NCCCCCCCCCCCNC(=O)Cn1cc(CCNC(C)=O)c2cc(OC)ccc21
[1]
  pKi: 5.12
[2]
  pKi: 6.53

## COc1ccc2c(c1)c(CCNC(C)=O)cn2CC(=O)NCCCCCCCCCNC(=O)Cn1cc(CCNC(C)=O)c2cc(OC)ccc21
[1]
  pKi: 4.83
[2]
  pKi: 4.93

## COc1ccc2c(c1)c(CCNC(C)=O)cn2CC(=O)NCCCCCCCCCCNC(=O)Cn1cc(CCNC(C)=O)c2cc(OC)ccc21
[1]
  pKi: 6.37
[2]
  pKi: 7.34

## COc1ccc2c(c1)c(CCNC(C)=O)cn2CCCCC(=O)NCCCCCCCCCCCCNC(=O)CCCCn1cc(CCNC(C)=O)c2cc(OC)ccc21
[1]
  pKi: 6.08
[2]
  pKi: 6.67
[3]
  Ratio: 0.062
[4]
  Ratio: 0.2
[5]
  Ratio: 1.15
[6]
  Ratio: 6.81

## COc1ccc2c(c1)c(CCNC(C)=O)cn2CCCCC(=O)NCCCCCCNC(=O)CCCCn1cc(CCNC(C)=O)c2cc(OC)ccc21
[1]
  pKi: 5.64
[2]
  pKi: 5.9
